The values below come from patent US20220347299A1, “FLUORESCENT SYSTEMS FOR BIOLOGICAL IMAGING AND USES THEREOF” (LIGHTOX LIMITED, priority 2019, published 2022).

A short description of series [1]: Peak absorption and fluorescence emission wavelengths in solvents. It is filed as physicochemical. To be noted: for λem(max)/nm: 100 nM, excitation at peak of absorption; for λabs(max)/nm: 10 μM. The procedure:
Peak absorption and fluorescence emission wavelengths of compounds 6, 7, 12, 13, 14, 15, 19, 23, 27, 30 and 34 were measured in a variety of solvents, and the results are shown in Table 1. Absorption measurements were recorded at a concentration of 10 μM, and emission measurements were recorded at a concentration of 100 nM. Emission spectra were recorded with excitation at the peak of absorption (S0→S1).

In a further series the test system is HaCaT keratinocytes. Briefly: Co-staining with organelle markers, co-localisation (PCC). It is filed as cell-based. Conditions: 1 μM compound, 30 minutes, BODIPY ER-Tracker Red. Here is the method:
To study the localisation of compounds in biological cells, co-staining of compounds of formula I with specific organelle markers (fluorescent dyes and antibodies) within biological cells was conducted. The following compounds were studied: compounds 6, 7, 12, 13, 14 and 15. HaCaT keratinocyte cell lines were used for the following experimental procedures. The cells were incubated in cell culture media (94% Dulbecco's Modified Eagle Medium (DMEM), 5% Foetal Bovine Serum (FBS) and 1% Penicillin Streptomycin solution (Pen-Strep). The cells were plated in 8-well plates, at a concentration of 25,000 cells per ml. 200 μl of cell suspension was added to each well, and the cells were incubated for 2 days before staining and imaging was carried out. In order to visualise the mitochondria, cells were probed with the mitochondrial dye MitoTracker® Deep Red. Cells to be stained were incubated with 200 μl MitoTracker® Deep Red solution (200 nM MitoTracker® and 1 μM Formula I compound in cell culture media) per well (N=3) for 30 minutes. Nile Red was used to identify lipids within the cells. 200 μl Nile Red Lipophilic dye (10 μg/ml Nile Red and 1 μM Formula I compound in cell culture media) was added to each well (N=3) and incubated for 30 minutes. For the detection of lysosomes within the cells, LysoTracker® Red DND-99 dye was used. 200 μl LysoTracker® Red DND-99 (50 nM LysoTracker® and 1 μM Formula I compound solution in cell culture media) was added to each well (N=3) and incubated for 30 minutes. For visualisation of the endoplasmic reticulum (ER), cells were stained with BODIPY® ER-Tracker® Red. 200 μl BODIPY ER-Tracker® Red (1 μM BODIPY® and 1 μM Formula I compound solution in cell culture media) was added to each well (N=3) and incubated for 30 minutes. Following incubation, the cell culture media containing dye was removed, and cells were washed twice with 200 μl phosphate buffered saline (PBS). After washing, 200 μl PBS was added into each well for imaging. For visualisation of the nuclear lamina, cells were probed with an anti-lamin A/C antibody. The cells were plated on 22×22 mm cover slips (10,000 cells/ml) and incubated for 2 days before staining. The cells were washed with PBS to remove excess media before staining. The cells were fixed with 4% paraformaldehyde (PFA) for 10 minutes at room temperature, before being washed twice in PBS for 5 minutes. Following washing, the cells were permeabilised in 0.4% Triton X-100 in PBS for 10 minutes. The cells were subsequently washed three times in PBS for 5 minutes, before being incubated in blocking buffer (1% BSA, 0.1% fish gelatine and 0.1% Triton X-100 in PBS) for 15 minutes at room temperature. The cells were incubated in primary antibody (mouse anti-lamin A/C IgG in blocking buffer) for 1 hour at room temperature. The cells were then washed twice in blocking buffer and incubated in secondary antibody (anti-mouse Alexa-594 IgG in blocking buffer) for 30 minutes at room temperature. Cells were washed twice in PBS for 10 minutes at room temperature. For cell staining with compounds of formula I, 5 μM of the compound of formula I in PBS was added to the cells for 30 minutes at room temperature. Cells were then washed five times for 5 minutes in PBS. Following washing, the cells were mounted onto non-charged microscopy slides using 6 μl Mowiol® per cover slip as mounting media. A Zeiss 880 confocal microscope was used for all the imaging work. [table] Image) Coloc2 software was used to calculate co-localization statistics between the compounds of formula I and the organelle marker images. The background was subtracted from each image and a region of interest (ROI) was used to target the analysis. The point spread function (PSF) of each image was calculated as 2.0 and Coastes' iterations was set to 100. The statistic quantified was the Pearson's Correlation Coefficient (PCC). PCC gives a number ranging from +1 to −1:1=perfect co-localisation; 0=no relationship; and, −1=perfect anti-co-localisation. […]

The subject of series [2] is S. epidermidis. Briefly: Overnight growth curve (OD 600 nm) cytotoxicity assay, S. epidermidis. It is filed as cell-based, Staphylococcus epidermis. Here is the method: A sample of S. epidermidis was taken from a plate culture and inoculated into Luria Broth to culture overnight at 30° C. for approximately 16 hours.
Samples were incubated in darkness at room temperature for approximately 2 hrs. A black clear bottom Costar™-96 well plate was then filled, with 200 μl of sample in each well Cells were irradiated for 5 minutes at approximately 15 mW/cm^2. The cytotoxicity of the compounds without irradiation was also assessed.
The 96 well plate was put into the plate reader and set up to run a growth curve protocol using the following parameters: • Incubation temperature: 37° C. • OD read wavelength 600 nm • 250 cycles, readings every 5 rains • Shaking for 5 s pre-reading
This was left to run overnight to obtain kinetic growth curves based on optical density readings.

The next series concerns Bacillus subtilis. The series can be described thus: Overnight growth curve (OD 600 nm) cytotoxicity assay, B. subtilis. It counts as cell-based. Here is the method: A sample of B. subtilis was taken from a plate culture and inoculated into Luria Broth to culture overnight at 37° C. for approximately 16 hours. [table] Samples were incubated in darkness at room temperature for approximately 2 hrs. A black clear bottom Costar™-96 well plate was then filled, with 200 μl of sample in each well Cells were irradiated for 5 minutes at approximately 15 mW/cm^2. The cytotoxicity of the compounds without irradiation was also assessed. The 96 well plate was put into the plate reader and set up to run a growth curve protocol using the following parameters: • Incubation temperature: 37° C. • OD read wavelength 600 nm • 250 cycles, readings every 5 rains • Shaking for 5 s pre-reading This was left to run overnight to obtain kinetic growth curves based on optical density readings.

Series [3] has as its system S. epidermidis. Briefly: Baclight staining (propidium iodide / Syto 9), widefield imaging, S. epidermidis. It is filed as cell-based, Staphylococcus epidermis. Conditions: 1 μM. The procedure:
Samples prepared according to Table 9 were treated with compounds by diluting 10 mM of stock solution in media to make a 100 μM concentration. This solution was then further diluted 1:10 and 1:100 in media to make 10 μM and 1 μM media solutions containing the compound. 50 μl of cell culture were then added to the 100 μM, 10 μM and 1 μM compound-containing media preparations. Following the treatment outlined in Table 9, each of the three bacterial strains were stained using a Baclight™ staining kit containing separate solutions of Syto™ 9 and Propidium Iodide. One extra sample treated with 0.1 μM of each compound was also included in this assay. M. smegmatis, S. epidermis and B. subtilis were stained with propidium iodide to show non-viable cells and with Syto 9 to show all cells. The following staining procedure was used: • 1. 1 ml of each sample was eluted into a well of a 12-well plate; • 2. One half of the 12 well plate was irradiated at approximately 15 mW/cm^2 for 5 mins; • 3. The content of each well was eluted into separate Eppendorfs and centrifuged at 10,000 r.p.m for 3 rains to form a culture pellet; • 4. Media was then removed, and each pellet resuspended in 200 μl of 1× PBS before being centrifuged at 10,000 r.p.m. for 3 mins. • 5. A preparation of Baclight™-staining solution was made using 1 ml 1× PBS, 3 μl propidium iodide and 3 μl Syto™ 9; • 6. […]

Regarding `CC(C)(C)OC(=O)/C=C/c1ccc(C#Cc2ccc(N3CCNCC3)cc2)cc1` [Compound 6, tert-butyl (2E)-3-(4-{2-[4-(piperazin-1-yl)phenyl]ethynyl}phenyl)prop-2-enoate], in series [1] (DCM), the “λem(max)/nm” value turned out to be 550 nm and the “λabs(max)/nm” value was determined as 368 nm. In series [1] (Toluene), the “λem(max)/nm” value is reported as 482 nm and the “λabs(max)/nm” value turned out to be 358 nm. Besides, in the series on HaCaT keratinocytes, the “average PCC Value with BODIPY ER-Tracker” value was found to be 0.48. Moreover, the “lag phase of growth of S. epidermidis, photoactivated” value in the series with S. epidermidis [2] (1 μM, 405 nm, 5 min, approximately 15 mW/cm^2, untreated lag around 2 hrs) is “around 15 hrs”. In the series with S. epidermidis [2] (1 μM, not irradiated), the “growth of S. epidermidis, non-photoactivated” value is on record as “minor impact on growth by extended lag phase”. In addition, in the series with S. epidermidis [2] (100 and 10μ concentrations, with or without photoactivation), the “growth of S. epidermidis” value is “no growth is evident regardless of any photoactivation”. The “growth of B. subtilis” value in the series with Bacillus subtilis (10 μM, effect much more significant in the radiated sample) is “growth is reduced and lag time extended”. Also, the “growth of B. subtilis, radiated” value in the series with Bacillus subtilis (5 and 1 μM, 405 nm, 5 min) is on record as “some growth inhibition”. Moreover, the “non-viable (red, propidium iodide) cells compared with untreated controls” value with S. epidermidis [3] is “increase in red fluorescent cells”.
